Laboratory results taken from patent US20030171329A1, “Stable compositions comprising tezacitabine” (priority 2002, published 2003).

Tests used:
[1] = Stability of tezacitabine in unbuffered aqueous solution; format: physicochemical
[2] = Stability of FMdC at various concentrations in 100 mM sodium phosphate pH 9 (Example 3, HPLC); format: physicochemical
Protocol: In this study the stability of FMdC at various concentrations in 100 mM sodium phosphate pH 9 was studied. FMdC solutions were made up and pH adjusted to target with sodium hydroxide. Solution samples were placed in stoppered glass vials and stored at the various temperatures. […] Flow rate was 1.0 mL/min. FMdC solution samples were diluted in mobile phase to a nominal FMdC concentration of 80 μg/mL, then injected onto the column in a volume of 10 μL. Detection was by UV at 268 nm.

[3] = human patients with solid tumors, Phase I clinical trials; cited from earlier work
[4] = FMdC 2 mg/mL, 100 mM sodium phosphate pH 9, 25° C., 0 mon
[5] = FMdC 2 mg/mL, 100 mM sodium phosphate pH 9, 25° C., 6 mon
[6] = FMdC 2 mg/mL, 100 mM sodium phosphate pH 9, 25° C., 9 mon
[7] = FMdC 2 mg/mL, 100 mM sodium phosphate pH 9, 25° C., 20 mon
[8] = FMdC 2 mg/mL, 100 mM sodium phosphate pH 9, 40° C., 0 mon
[9] = FMdC 2 mg/mL, 100 mM sodium phosphate pH 9, 40° C., 3 mon
[10] = FMdC 2 mg/mL, 100 mM sodium phosphate pH 9, 40° C., 6 mon
[11] = FMdC 2 mg/mL, 100 mM sodium phosphate pH 9, 40° C., 9 mon
[12] = FMdC 2 mg/mL, 100 mM sodium phosphate pH 9, 50° C., 0 mon
[13] = FMdC 2 mg/mL, 100 mM sodium phosphate pH 9, 50° C., 0.5 mon
[14] = FMdC 2 mg/mL, 100 mM sodium phosphate pH 9, 50° C., 1.0 mon
[15] = FMdC 2 mg/mL, 100 mM sodium phosphate pH 9, 50° C., 2.0 mon
[16] = FMdC 2 mg/mL, 100 mM sodium phosphate pH 9, 50° C., 3.0 mon
[17] = FMdC 10 mg/mL, 100 mM sodium phosphate pH 9, 25° C., 0 mon
[18] = FMdC 10 mg/mL, 100 mM sodium phosphate pH 9, 25° C., 2.8 mon
[19] = FMdC 10 mg/mL, 100 mM sodium phosphate pH 9, 25° C., 4.0 mon
[20] = FMdC 10 mg/mL, 100 mM sodium phosphate pH 9, 25° C., 6.5 mon
[21] = FMdC 10 mg/mL, 100 mM sodium phosphate pH 9, 25° C., 7.9 mon
[22] = FMdC 10 mg/mL, 100 mM sodium phosphate pH 9, 25° C., 16 mon
[23] = FMdC 10 mg/mL, 100 mM sodium phosphate pH 9, 25° C., 23 mon
[24] = FMdC 10 mg/mL, 100 mM sodium phosphate pH 9, 40° C., 0 mon
[25] = FMdC 10 mg/mL, 100 mM sodium phosphate pH 9, 40° C., 2.0 mon
[26] = FMdC 10 mg/mL, 100 mM sodium phosphate pH 9, 40° C., 3.0 mon
[27] = FMdC 10 mg/mL, 100 mM sodium phosphate pH 9, 40° C., 3.7 mon
[28] = FMdC 10 mg/mL, 100 mM sodium phosphate pH 9, 40° C., 4.1 mon
[29] = FMdC 10 mg/mL, 100 mM sodium phosphate pH 9, 50° C., 0 mon
[30] = FMdC 10 mg/mL, 100 mM sodium phosphate pH 9, 50° C., 0.3 mon
[31] = FMdC 10 mg/mL, 100 mM sodium phosphate pH 9, 50° C., 0.7 mon
[32] = FMdC 10 mg/mL, 100 mM sodium phosphate pH 9, 50° C., 0.9 mon
[33] = FMdC 10 mg/mL, 100 mM sodium phosphate pH 9, 50° C., 1.4 mon
[34] = FMdC 10 mg/mL, 100 mM sodium phosphate pH 9, 50° C., 2.1 mon

Nc1ccn([C@@H]2O[C@H](CO)[C@@H](O)/C2=C\F)c(=O)n1 [FMdC, (E)-2′-deoxy-2′-(fluoromethylene)cytidine]
pH before storage ([1]; 35° C., start): about 7.2
loss of drug (HPLC) ([1]; 35° C., within 4 days): greater than 90%
pH after storage ([1]; 35° C., within 4 days): about 4.3
colour change of solution, indicative of degradation ([1]; room temperature, within five days): changes from colorless to yellow to light brown
stability in words ([2]; 25° C., 2 and 10 mg/mL in 100 mM sodium phosphate pH 9): stable for over eighteen months
FMdC [2, 4]: 100.0 % of initial
pH [2, 4]: 9.18
FMdC [2, 5]: 100.0 % of initial
pH [2, 5]: 9.00
FMdC [2, 6]: 100.5 % of initial
pH [2, 6]: 9.03
FMdC [2, 7]: 100.0 % of initial
pH [2, 7]: 9.00
FMdC [2, 8]: 100.0 % of initial
pH [2, 8]: 9.18
FMdC [2, 9]: 97.0 % of initial
pH [2, 9]: 8.89
FMdC [2, 10]: 92.5 % of initial
pH [2, 10]: 8.55
FMdC [2, 11]: 88.4 % of initial
pH [2, 11]: 8.44
FMdC [2, 12]: 100.0 % of initial
pH [2, 12]: 9.18
FMdC [2, 13]: 100.0 % of initial
pH [2, 13]: 8.84
FMdC [2, 14]: 97.4 % of initial
pH [2, 14]: 8.84
FMdC [2, 15]: 88.7 % of initial
pH [2, 15]: 8.39
FMdC [2, 16]: 80.4 % of initial
pH [2, 16]: 8.16
FMdC [2, 17]: 100.0 % of initial
pH [2, 17]: 9.29
FMdC [2, 18]: 98.9 % of initial
pH [2, 18]: 9.25
FMdC [2, 19]: 100.4 % of initial
pH [2, 19]: 9.17
FMdC [2, 20]: 99.3 % of initial
pH [2, 20]: 9.09
FMdC [2, 21]: 98.1 % of initial
pH [2, 21]: 9.06
FMdC [2, 22]: 97.3 % of initial
pH [2, 22]: 8.73
FMdC [2, 23]: 97.1 % of initial
pH [2, 23]: 8.74
FMdC [2, 24]: 100.0 % of initial
pH [2, 24]: 9.29
FMdC [2, 25]: 98.1 % of initial
pH [2, 25]: 8.60
FMdC [2, 26]: 95.8 % of initial
pH [2, 26]: 8.40
FMdC [2, 27]: 96.9 % of initial
pH [2, 27]: 8.19
FMdC [2, 28]: 94.9 % of initial
pH [2, 28]: 8.08
FMdC [2, 29]: 100.0 % of initial
pH [2, 29]: 9.29
FMdC [2, 30]: 99.6 % of initial
pH [2, 30]: 8.75
FMdC [2, 31]: 94.4 % of initial
pH [2, 31]: 8.24
FMdC [2, 32]: 89.5 % of initial
pH [2, 32]: 7.91
FMdC [2, 33]: 82.0 % of initial
pH [2, 33]: 7.52
FMdC [2, 34]: 67.4 % of initial
pH [2, 34]: 7.01
tolerability [3]: well tolerated
